Reference: patent publication EP4380572B1, “FORMULATION FOR SUBSTITUTED 2-AMINOTHIAZOLES IN THE TREATMENT OF FUNGAL AND FUNGAL-BACTERIAL INFECTIONS OF THE NAIL” (OnychoPharm GmbH, priority 2021, dated 2023)

Columns and labels:
[1] = cited from earlier work; for stability of the crystalline form: anhydrate polymorphic crystalline forms described in EP 0 718 296 A1
[2] = Solubility of abafungin in different solvents (saturated solution, UV at 302 nm); format: physicochemical; conditions: shaken 24 h, 19°C
Description: 2 ml of solvent were placed in a glass vial containing abafungin powder. The vial was mechanically shaken for 24 h in an environment with controlled temperature (19°C). Thereafter the content of the vials was transferred into Eppendorf tubes and centrifuged at 13000 rpm for 3 min. The supernatant (saturated solution) was collected and assayed using a UV spectrometer at 302 nm (λmax of abafungin). […] Drug concentration in the saturated solution (or diluted solution) was then determined using a standard curve (Table 2). Each experiment was conducted in triplicates. […]

SMILES | stability at high humidity ([1]; 85% relative humidity, over months) | stability of the crystalline form [1] | Solubility mg/100 ml mean ± standard deviation ([2]; solvent 1,2-propanediol) [mg/100 ml] | Solubility mg/100 ml mean ± standard deviation ([2]; solvent DMSO) [mg/100 ml] | Solubility mg/100 ml mean ± standard deviation ([2]; solvent N-methyl pyrrolidone) [mg/100 ml] | Solubility mg/100 ml mean ± standard deviation ([2]; solvent PEG600) [mg/100 ml] | Solubility mg/100 ml mean ± standard deviation ([2]; solvent butyl acetate) [mg/100 ml] | Solubility mg/100 ml mean ± standard deviation ([2]; solvent ethanol) [mg/100 ml] | Solubility mg/100 ml mean ± standard deviation ([2]; solvent ethyl acetate) [mg/100 ml] | Solubility mg/100 ml mean ± standard deviation ([2]; solvent isopropanol myristate) [mg/100 ml] | Solubility mg/100 ml mean ± standard deviation ([2]; solvent isopropanol) [mg/100 ml] | Solubility mg/100 ml mean ± standard deviation ([2]; solvent water) [mg/100 ml]
Cc1ccc(Oc2ccccc2-c2csc(N=C3NCCCN3)n2)c(C)c1 [modification 2] | stable | photochemically and thermodynamically more stable | – | – | – | – | – | – | – | – | – | –
Cc1ccc(Oc2ccccc2-c2csc(N=C3NCCCN3)n2)c(C)c1 [abafungin, 4-[2-(2,4-dimethylphenoxy)phenyl]-N-(1,4,5,6-tetrahydropyrimidin-2-yl)-1,3-thiazol-2-amine] | – | – | 219.93 ± 12.10 | 4483.42 ± 16.30 | 27678.92 ± 434.07 | 5029.70 ± 12.70 | 822.13 ± 2.55 | 238.46 ± 2.72 | 803.75 ± 35.51 | 50.60 ± 4.30 | 156.14 ± 16.5 | < 0.032
Cc1ccc(Oc2ccccc2-c2csc(N=C3NCCCN3)n2)c(C)c1 [modification 1] | – | metastable | – | – | – | – | – | – | – | – | – | –
